US4448781A, “N-Benzyl-imidazoles as selective inhibitors of the thromboxane synthetase enzyme” (Pfizer Inc., priority 1979, dated 1984)
Structures can show the parent of a compound that is named as a salt.

Assays:
cyclo-oxygenase = biological target: T1, cyclo-oxygenase (Ovis aries, UniProt P05979); assay: Cyclo-oxygenase inhibition (ram seminal vesicle microsomes, rabbit aorta strip bioassay); format: biochemical; settings: 5 min pre-incubation, isometric tension of rabbit aorta, read-out: Molar concentration causing 50% inhibition of (2) cyclo-oxygenase
T1 construct: Ram seminal vesicle microsomes; from tissue; host or cells: ram seminal vesicle (microsomes)
T1 sequence (P05979 25-600): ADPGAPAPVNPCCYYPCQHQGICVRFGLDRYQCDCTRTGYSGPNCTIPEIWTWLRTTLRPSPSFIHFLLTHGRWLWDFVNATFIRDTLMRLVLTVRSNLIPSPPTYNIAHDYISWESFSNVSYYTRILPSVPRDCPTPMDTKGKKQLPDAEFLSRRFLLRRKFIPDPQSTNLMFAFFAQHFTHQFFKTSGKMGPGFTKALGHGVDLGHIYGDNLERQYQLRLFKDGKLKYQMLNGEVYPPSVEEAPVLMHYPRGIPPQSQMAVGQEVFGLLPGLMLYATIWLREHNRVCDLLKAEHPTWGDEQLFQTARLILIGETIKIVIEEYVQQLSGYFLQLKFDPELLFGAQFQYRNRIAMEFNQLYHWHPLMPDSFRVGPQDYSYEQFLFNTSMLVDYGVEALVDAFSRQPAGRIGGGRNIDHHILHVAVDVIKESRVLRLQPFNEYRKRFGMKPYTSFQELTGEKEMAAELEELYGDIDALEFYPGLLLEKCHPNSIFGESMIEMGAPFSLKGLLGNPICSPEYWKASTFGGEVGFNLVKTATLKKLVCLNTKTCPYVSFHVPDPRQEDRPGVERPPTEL
Method: Ram seminal vesicle microsomes (Biochemistry, 1971, 10, 2372) are incubated with arachidonic acid (100 μM: 1 min.: 22°) to produce PGH2 and aliquots of the reaction mixture injected into a stream of Krebs-bicarbonate at 37° C. (containing a mixture of antagonists (Nature, […], 218, 1135) and indomethacin (Brit. J. Pharmacol., 1972, 45, 451) which is superfusing a spirally-cut rabbit aorta strip (Nature, 1969, 223, 29). The ability of a compound to inhibit the enzyme is measured by comparing the increases in isometric tension produced by PGH2 in the absence of the test compound, and following pre-incubation of the enzyme with the test compound for 5 minutes.
(§1) The results of these tests are shown in the following Table, which gives the molar concentration of each compound which caused a 50% change in the effect of the relevant enzyme on isometric tension, i.e. caused a 50% inhibition of the action of that enzyme.

thromboxane synthetase = biological target: T2, thromboxane synthetase (Homo sapiens, UniProt P24557); assay: Thromboxane A2 (TxA2) synthetase inhibition (indomethacin pre-treated human platelet microsomes, rabbit aorta superfusion bioassay); format: biochemical; settings: 5 min pre-incubation, isometric tension of rabbit aorta, read-out: Molar concentration causing 50% inhibition of (1) thromboxane synthetase
T2 construct: Indomethacin pre-treated human platelet microsomes; from tissue; host or cells: human blood platelets (microsomes)
T2 sequence (P24557 1-533): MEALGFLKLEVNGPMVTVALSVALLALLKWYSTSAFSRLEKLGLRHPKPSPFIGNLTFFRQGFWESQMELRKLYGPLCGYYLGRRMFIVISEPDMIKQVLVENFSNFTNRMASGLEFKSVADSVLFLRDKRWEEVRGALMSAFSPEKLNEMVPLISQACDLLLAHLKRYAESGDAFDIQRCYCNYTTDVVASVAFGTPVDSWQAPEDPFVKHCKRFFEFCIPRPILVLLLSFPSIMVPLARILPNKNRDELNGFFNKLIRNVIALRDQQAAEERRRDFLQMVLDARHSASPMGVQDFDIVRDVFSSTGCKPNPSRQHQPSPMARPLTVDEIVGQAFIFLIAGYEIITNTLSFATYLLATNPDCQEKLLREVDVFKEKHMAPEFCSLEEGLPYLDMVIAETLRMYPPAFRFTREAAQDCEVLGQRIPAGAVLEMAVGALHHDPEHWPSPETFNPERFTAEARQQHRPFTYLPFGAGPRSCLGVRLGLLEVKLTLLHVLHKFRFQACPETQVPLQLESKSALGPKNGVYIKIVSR
Method: 3. Thromboxane A2 (TxA2) Synthetase
Indomethacin pre-treated human platelet microsomes (Science 1976, 193, 163) are incubated (2 min.: 0° C.) with PGH2 (produced as in 1) and aliquots of the reaction mixture superfused over two rabbit aorta spirals which are separated by a delay coil (2 min.). The latter is required to allow the selective decay of the more unstable thromboxane A2 (Proc. Nat. Acad. Sci., 1975, 72, 2994) thereby enabling the separate measurement of increased isometric tension due to the TxA2 formed and the PGH2 remaining. The test compound is pre-incubated with the enzyme for 5 minutes, and its ability to inhibit the thromboxane synthetase enzyme is measured as its reduction of the TxA2 component of the isometric tension.
as §1

[1] = test system: arachidonic acid induced death in rabbits; settings: rabbit, intravenous injection of arachidonic acid; cited from earlier work
[2] = test system: human blood platelet aggregation; settings: human blood platelets; cited from earlier work
cyclo-oxygenase enzyme = settings: cited from earlier work
[3] = test system: prostacyclin and thromboxane A2 levels; settings: cited from earlier work
prostacyclin synthetase [4] = biological target: T3, prostacyclin synthetase (Sus scrofa, UniProt A0A5G2QT35); settings: pre-incubation of the enzyme; Prostaglandins, 1976, 12, 715; cited from earlier work
T3 construct: Pig aorta microsomes; from tissue; host or cells: pig aorta (microsomes)
T3 sequence (A0A5G2QT35 1-497): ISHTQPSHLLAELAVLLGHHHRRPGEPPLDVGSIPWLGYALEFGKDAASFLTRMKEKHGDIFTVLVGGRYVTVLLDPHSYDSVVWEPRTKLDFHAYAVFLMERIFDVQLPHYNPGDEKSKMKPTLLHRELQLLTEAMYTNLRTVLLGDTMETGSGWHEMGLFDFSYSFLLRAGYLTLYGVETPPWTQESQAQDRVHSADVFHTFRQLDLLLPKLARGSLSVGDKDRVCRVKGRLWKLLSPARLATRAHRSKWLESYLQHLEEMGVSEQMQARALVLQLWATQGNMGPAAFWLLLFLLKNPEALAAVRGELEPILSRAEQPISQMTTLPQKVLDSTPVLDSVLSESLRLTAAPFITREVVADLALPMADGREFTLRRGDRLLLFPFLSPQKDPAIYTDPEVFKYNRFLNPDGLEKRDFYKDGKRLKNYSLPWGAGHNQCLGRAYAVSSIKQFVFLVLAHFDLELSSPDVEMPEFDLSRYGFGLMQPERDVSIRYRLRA

aggregation of platelets = settings: rats, abdominal aorta, in vivo; cited from earlier work
prostacyclin synthetase [5] = biological target: T3, prostacyclin synthetase; assay: Prostacyclin (PGI2) synthetase inhibition (pig aorta microsomes, rabbit aorta bioassay); format: biochemical; settings: 5 min pre-incubation, isometric tension of rabbit aorta, read-out: Molar concentration causing 50% inhibition of (3) prostacyclin synthetase
Method: 2. Prostacyclin (PGI2) Synthetase
Pig aorta microsomes (Nature, 1976, 263, 663) are incubated (30 sec.: 22° C.) with PGH2 produced as in 1) and aliquots bio-assayed as in 1. […] The test compound is then pre-incubated with the enzyme for 5 minutes, and its ability to prevent the decrease in tension is measured.
as §1

Cc1ccc(OCc2ccc(C(=O)O)cc2)c(Cn2ccnc2)c1 [Example 5, 4-[2-(1-Imidazolylmethyl)-4-methyl-phenoxymethyl]benzoic acid]
IC50 (cyclo-oxygenase): > 100 µM
IC50 (thromboxane synthetase): 47 nM

CC(=O)Oc1ccccc1C(=O)O [Aspirin]
protection from the lethal effect of intravenous arachidonic acid [1]: protect the rabbit from the lethal effect of the injection
inhibitory activity in vitro against a variety of aggregating agents [2]: show inhibitory activity in vitro against a variety of aggregating agents
inhibition of the cyclo-oxygenase enzyme (in words) (cyclo-oxygenase enzyme): inhibit the cyclo-oxygenase enzyme
effect on prostacyclin and thromboxane A2 levels (in words) [3]: reduce both the prostacyclin and thromboxane A2 levels

15-hydroperoxy-arachidonic acid
prevention of the decrease in PGH2-induced tension (PGI2 synthetase inhibition, in words) (prostacyclin synthetase [4]): prevented completely

NC(=O)COc1ccc(Cn2ccnc2)cc1 [Example 8, 4-(1-Imidazolylmethyl)phenoxyacetamide]
IC50 (cyclo-oxygenase): > 100 µM
IC50 (thromboxane synthetase): 46 nM

O=C1C(CC[S+]([O-])c2ccccc2)C(=O)N(c2ccccc2)N1c1ccccc1 (stereo not drawn) [sulphinpyrazone]
protection from the lethal effect of intravenous arachidonic acid [1]: protect the rabbit from the lethal effect of the injection
prevention of the aggregation of platelets in an extra corporeal loop (aggregation of platelets): prevent the aggregation of platelets
inhibitory activity in vitro against a variety of aggregating agents [2]: show inhibitory activity in vitro against a variety of aggregating agents

O=C(O)COc1cccc(Cn2ccnc2)c1 [Example 24, 3-(1-Imidazolylmethyl)phenoxyacetic acid hydrochloride]
IC50 (thromboxane synthetase): 4.5 nM

Cc1ccc(OCCCC(N)=O)c(Cn2ccnc2)c1 [Example 4, 4-[2-(1-Imidazolylmethyl)-4-methyl-phenoxy]butyramide]
IC50 (cyclo-oxygenase): > 100 µM
IC50 (thromboxane synthetase): 2.4 nM

Cc1ccc(OCC(=O)O)c(Cn2ccnc2)c1 [Example 2, 2-(1-Imidazolylmethyl)-4-methyl-phenoxyacetic acid hydrochloride hemihydrate]
IC50 (cyclo-oxygenase): > 100 µM
IC50 (prostacyclin synthetase [5]): > 100 µM
IC50 (thromboxane synthetase): 8.2 nM
